Test results taken from ChEMBL document CHEMBL4196011, “The lead optimization of the polyamine conjugate of flavonoid with a naphthalene motif: Synthesis and biological evaluation” (Eur J Med Chem, 2018).
Calls of active or inactive are those of the source. The rule behind the calls is not given here.

Legend:
[1] = system: HepG2; experiment: Induction of apoptosis in human HepG2 cells assessed as disruption of mitochondrial membrane potential after 48 hrs by Rh123 staining-based fluorescence quenching analysis; assay type: functional, cell-based
[2] = system: HT-29; experiment: Antiproliferative activity against human HT-29 cells after 48 hrs by MTT assay; assay type: functional, cell-based; details: HT-29, 48 h
[3] = system: H22; experiment: Antitumor activity against […] xenografted in Kunming mouse assessed as tumor growth inhibition at 30 mg/kg, iv for 7 consecutive days measured on day 16; assay type: functional; details: 384 h, read-out: TGI
[4] = system: H22; experiment: Antitumor activity against […] xenografted in Kunming mouse assessed as tumor growth inhibition at 40 mg/kg, iv for 7 consecutive days measured on day 16; assay type: functional; details: 384 h, read-out: TGI
[5] = system: Mus musculus; experiment: Toxicity in Kunming mouse xenografted with […] H22 cells assessed as effect on liver weight index at 30 mg/kg, iv administered for 7 consecutive days; assay type: organism-based; details: in vivo
[6] = Drug localization in endoplasmic reticulum of human HepG2 cells at 7.5 uM after 8 hrs by ER-Tracker Red dye-based confocal fluorescence microscopic analysis; assay type: ADME, subcellular; details: hepg2, 8 h
[7] = system: HepG2; experiment: Induction of apoptosis in human HepG2 cells assessed as early apoptotic cells at 7.5 uM after 8 hrs by Annexin V-FITC/propidium iodide staining-based flow cytometry (reference value: 1.29%); assay type: functional
[8] = system: HepG2; experiment: Induction of apoptosis in human HepG2 cells assessed as viable cells at 2.5 uM after 24 hrs by Annexin V-FITC/propidium iodide staining-based flow cytometry (reference value: 96.97%); assay type: functional; details: HepG2, 24 h, read-out: Activity
[9] = system: HepG2; experiment: Induction of apoptosis in human HepG2 cells assessed as late apoptotic cells at 5 uM after 24 hrs by Annexin V-FITC/propidium iodide staining-based flow cytometry (reference value: 0.88%); assay type: functional
[10] = system: HepG2; experiment: Induction of apoptosis in human HepG2 cells assessed as necrotic cells at 2.5 uM after 36 hrs by Annexin V-FITC/propidium iodide staining-based flow cytometry (reference value: 0.24%); assay type: functional
[11] = system: HepG2; experiment: Induction of apoptosis in human HepG2 cells assessed as necrotic cells at 7.5 uM after 36 hrs by Annexin V-FITC/propidium iodide staining-based flow cytometry (reference value: 0.24%); assay type: functional
[12] = system: HepG2; experiment: Induction of apoptosis in human HepG2 cells assessed as viable cells at 5 uM after 36 hrs by Annexin V-FITC/propidium iodide staining-based flow cytometry (reference value: 96.6%); assay type: functional; details: HepG2, 36 h, read-out: Activity
[13] = system: HepG2; experiment: Induction of apoptosis in human HepG2 cells assessed as viable cells at 2.5 uM after 48 hrs by Annexin V-FITC/propidium iodide staining-based flow cytometry (reference value: 96.67%); assay type: functional; details: HepG2, 48 h, read-out: Activity
[14] = system: HepG2; experiment: Induction of apoptosis in human HepG2 cells assessed as late apoptotic cells at 7.5 uM after 48 hrs by Annexin V-FITC/propidium iodide staining-based flow cytometry (reference value: 0.95%); assay type: functional
[15] = system: HepG2; experiment: Induction of apoptosis in human HepG2 cells assessed as necrotic cells at 5 uM after 48 hrs by Annexin V-FITC/propidium iodide staining-based flow cytometry (reference value: 0.08%); assay type: functional
[16] = system: HepG2; experiment: Induction of apoptosis in human HepG2 cells assessed as increase in Bax protein expression after 48 hrs by immunofluorescence staining-based high content screening assay; assay type: functional, cell-based
[17] = system: HepG2; experiment: Induction of apoptosis in human HepG2 cells assessed as caspase 3 activation after 48 hrs by immunofluorescence staining-based high content screening assay; assay type: functional, cell-based
[18] = system: HepG2; experiment: Induction of autophagy in human HepG2 cells assessed as formation of autolysosomes at 2.5 to 7.5 uM preincubated cells with 3-MA for 2 hrs followed by compound addition measured after 48 hrs by MDC staining-based assay; assay type: functional, cell-based

In the case of `COc1ccc2cc(-c3oc4c(CNCCCCN)cccc4c(=O)c3OC)ccc2c1Br.Cl.Cl`, the Activity [1] is reported as “Dose-dependent effect”, the IC50 [2] is reported as 14.7 µM and the inhibition in vivo at 30 mg/kg [3] is reported as 63.6%. For the same compound, the inhibition in vivo at 40 mg/kg [4] was 69.1%, the Activity [5] was “Non-Toxic” and the Drug uptake [6] was “Active”. For the same compound, the Activity [7] was 18.1%, the viability at 2.5 µM [8] was 88.7% and the Activity [9] was 2.03%. The Activity [10] was 3.9%, the Activity [11] was 0.26% and the viability at 5 µM [12] was 81%. For the same compound, the viability at 2.5 µM [13] was 74.1%, the Activity [14] was 31.22% and the Activity [15] was 3.39%. For the same compound, the Activity [16] was “Dose-dependent effect”, the Activity [17] was “Dose-dependent effect” and the Activity [18] was “inactive”.
